A word on the GI50: it is the concentration that inhibits growth by half. Read a low GI50 as greater sensitivity of the cells.

The test system of the first test is T47D cells. Briefly: Cellular growth inhibition assay for T47D cells, CellTiter-Glo. The test is classed as cell-based, human. To be noted: 72 hours treatment, CellTiter-Glo 2.0 cell viability. As for the experimental part: T47D cells were purchased from American Type Cell Culture (ATCC Cat #HTB-133) and then seeded on poly-D-lysine coated, black clear-bottom 384-well plates at 3000/well in 25 μL Dulbecco's Modified Eagle Medium (DMEM) supplemented with 10% w/w Fetal bovine serum (FBS), 0.2 units/mL recombinant human insulin (Gibco Cat #12585014), and 1% w/w Pen-Strep. Pen-Strep is a commercially available mixture of penicillin G and streptomycin, which is used in mammalian cell culture media to prevent bacterial contamination. Dulbecco's Modified Eagle Medium (DMEM) supplemented with 10% w/w fetal bovine serum (FBS), 0.2 units/mL recombinant human insulin, and 1% w/w Pen-Strep is herein referred to as Treatment Medium. Following seeding of cells in the plates, the plates were spun at 300×g for 30 seconds, then equilibrated to room temperature for 30 minutes, and then deposited in a humidified tissue culture incubator maintained at 37° C. with 5% CO2.
At 24 hours after seeding of the cells, dilutions of test compound were prepared in DMSO and dissolved in Treatment Medium, to achieve a final DMSO concentration of 0.5% w/w, thereby providing the Test Compound Solution. A 25 μL aliquot of the Test Compound Solution was added to cells in the well plates. An equal volume of a solution containing DMSO and Treatment Medium was used as a negative control. Following treatment of cells with Test Compound Solution or said equal volume of a solution containing DMSO and Treatment Medium, the plates were spun at 300×g for 30 seconds, and then left in an incubator for 72 hours.
At the end of the treatment duration, cell viability was quantified with CellTiter-Glo 2.0 reagent (Promega Cat #G9243). For this purpose, plates were equilibrated to room temperature for 30 minutes, and then 25 μL of CellTiter-Glo 2.0 reagent was added to cells in the plate wells. Plates were then agitated on a shaker for two minutes at 500 rpm and subsequently incubated at room temperature for 10 minutes. Following incubation, the plates were spun at 3000×g for 30 seconds, then sealed with an optical adhesive cover, and luminescence readings were measured with an EnVision Plate Reader (Perkin Elmer).
Data was normalized using zero luminescence for baseline. A four-parameter non-linear regression curve fit was applied to dose-response data in GraphPad Prism data analysis software to determine the half-maximal growth inhibitory concentration (GI50) for each test compound.
Take `Cc1sc2c(c1C)C(c1ccc(C3CC(CC4CCN(c5ncc(C(=O)N[C@H]6C(C)(C)[C@H](Oc7ccc(C#N)c(Cl)c7)C6(C)C)cn5)CC4)C3)cc1)=NC(C)c1nnc(C)n1-2` (stereo partly drawn) [Compound I-511]: the concentration for 50% growth inhibition (GI50) is above 3000 nM. Still for that read-out and setting: under `Cc1sc2c(c1C)C(c1ccc([C@H]3C[C@@H]3CC3CCCN(c4ncc(C(=O)N[C@H]5C(C)(C)[C@H](Oc6ccc(C#N)c(Cl)c6)C5(C)C)cn4)C3)cc1)=NC(Cc1ncco1)c1nnc(C)n1-2` (stereo partly drawn) [Compound I-496] stands below 500 nM; under `Cc1sc2c(c1C)C(c1ccc(OCC3CC4(CCCN(c5ncc(C(=O)N[C@H]6C(C)(C)[C@H](Oc7ccc(C#N)c(Cl)c7)C6(C)C)cn5)C4)C3)cc1)=NC1(CC1)c1nnc(C)n1-2` [Compound I-500], above 3000 nM; under `Cc1sc2c(c1C)C(c1ccc(C#CC3CCC(Cc4ncc(C(=O)N[C@H]5C(C)(C)[C@H](Oc6ccc(C#N)c(Cl)c6)C5(C)C)cn4)CC3)cc1)=N[C@@H](Cc1ncco1)c1nnc(C)n1-2` (stereo partly drawn) [Compound I-505], above 3000 nM. `Cc1sc2c(c1C)C(c1ccc(C3CC(CC4CCN(c5ncc(C(=O)N[C@H]6C(C)(C)[C@H](Oc7ccc(C#N)c(Cl)c7)C6(C)C)cn5)CC4)C3)cc1)=NC(C)c1nnc(C)n1-2` (stereo partly drawn) [Compound I-508]: the 50% growth inhibitory concentration (GI50) was 500 to 1500 nM. The same measure, in the same setting: the same measure for `Cc1sc2c(c1C)C(c1ccc(C3CC(CC4CCN(c5ncc(C(=O)N[C@H]6C(C)(C)[C@H](Oc7ccc(C#N)c(Cl)c7)C6(C)C)cn5)CC4)C3)cc1)=NC(C)c1nnc(C)n1-2` (stereo partly drawn) [Compound I-509]: below 500 nM; for `Cc1sc2c(c1C)C(c1ccc(CC3CC(CC4CCN(c5ncc(C(=O)N[C@H]6C(C)(C)[C@H](Oc7ccc(C#N)c(Cl)c7)C6(C)C)cn5)CC4)C3)cc1)=N[C@@H](C)c1nnc(C)n1-2` (stereo partly drawn) [Compound I-513]: below 500 nM; for `Cc1sc2c(c1C)C(c1ccc(N3CC(C4CCC(Cc5ncc(C(=O)N[C@H]6C(C)(C)[C@H](Oc7ccc(C#N)c(Cl)c7)C6(C)C)cn5)CC4)C3)cc1)=N[C@@H](Cc1ncco1)c1nnc(C)n1-2` (stereo partly drawn) [Compound I-544]: 500 to 1500 nM.

For the compound `Cc1sc2c(c1C)C(c1ccc([C@@H]3C[C@H]3C3CC4(CCN(c5cnc(C(=O)N[C@H]6C(C)(C)[C@H](Oc7ccc(C#N)c(Cl)c7)C6(C)C)cn5)CC4)C3)cc1)=N[C@@H](Cc1ncco1)c1nnc(C)n1-2` [Compound I-519], the concentration for 50% growth inhibition (GI50) was above 3000 nM.

As to `Cc1sc2c(c1C)C(c1ccc(C3CC(CC4CCN(c5ncc(C(=O)N[C@H]6C(C)(C)[C@H](Oc7ccc(C#N)c(Cl)c7)C6(C)C)cn5)CC4)C3)cc1)=NC(C)c1nnc(C)n1-2` (stereo partly drawn) [Compound I-510], the GI50 is above 3000 nM.

Staying with this test, now noted: Homo sapiens, T47D, 72 h, 72 hours treatment, CellTiter-Glo 2.0 cell viability.
On to `Cc1sc2c(c1C)C(c1ccc(C#CC3CC(Cc4ncc(C(=O)N[C@H]5C(C)(C)[C@H](Oc6ccc(C#N)c(Cl)c6)C5(C)C)cn4)C3)cc1)=NC(Cc1ncco1)c1nnc(C)n1-2` (stereo partly drawn) [Compound I-560], for which the GI50 fell in the range of 500 to 1500 nM. As for `Cc1sc2c(c1C)C(c1ccc(N3CC(C4CCN(c5cnc(C(=O)N[C@H]6C(C)(C)[C@H](Oc7ccc(C#N)c(Cl)c7)C6(C)C)cn5)CC4)C3)cc1)=NC1(CC1)c1nnc(C)n1-2` [Compound I-528], the concentration for 50% growth inhibition (GI50) is above 3000 nM. On to `Cc1sc2c(c1C)C(c1ccc(N3CC(CC4CN(c5ccc(C(=O)N[C@H]6C(C)(C)[C@H](Oc7ccc(C#N)c(Cl)c7)C6(C)C)nc5)C4)C3)cc1)=NC1(CC1)c1nnc(C)n1-2` [Compound I-531], for which the GI50 was above 3000 nM.

With `Cc1sc2c(c1C)C(c1ccc(N3CC(CC4CCN(c5ccc(C(=O)N[C@H]6C(C)(C)[C@H](Oc7ccc(C#N)c(Cl)c7)C6(C)C)cn5)CC4)C3)cc1)=N[C@@H](C)c1nnc(C)n1-2` [Compound I-502], the GI50 is below 500 nM. For the compound `Cc1sc2c(c1C)C(c1ccc(N3CC4(CC(Cc5ncc(C(=O)N[C@H]6C(C)(C)[C@H](Oc7ccc(C#N)c(Cl)c7)C6(C)C)cn5)C4)C3)cc1)=N[C@@H](Cc1ncco1)c1nnc(C)n1-2` [Compound I-498], the GI50 lay in the range of 500 to 1500 nM. `Cc1sc2c(c1C)C(c1ccc(N3CC(CC4CCN(c5ccc(C(=O)N[C@H]6C(C)(C)[C@H](Oc7ccc(C#N)c(Cl)c7)C6(C)C)nc5)CC4)C3)cc1)=NC1(CC1)c1nnc(C)n1-2` [Compound I-529] displayed a GI50 above 3000 nM. On the same count and under the same terms, the same measure for `Cc1sc2c(c1C)C(c1ccc(N3CC(C4CCCC(Cc5ncc(C(=O)N[C@H]6C(C)(C)[C@H](Oc7ccc(C#N)c(Cl)c7)C6(C)C)cn5)C4)C3)cc1)=N[C@@H](Cc1ncco1)c1nnc(C)n1-2` (stereo partly drawn) [Compound I-579]: below 500 nM; for `Cc1sc2c(c1C)C(c1ccc(N3CC(CC4CN(c5ccc(C(=O)N[C@H]6C(C)(C)[C@H](Oc7ccc(C#N)c(Cl)c7)C6(C)C)cn5)C4)C3)cc1)=NC1(CC1)c1nnc(C)n1-2` [Compound I-532]: above 3000 nM.

Consider `Cc1sc2c(c1C)C(c1ccc(OC3(C)CC4(CCN(c5ncc(C(=O)N[C@H]6C(C)(C)[C@H](Oc7ccc(C#N)c(Cl)c7)C6(C)C)cn5)CC4)C3)cc1)=N[C@@H](Cc1ncco1)c1nnc(C)n1-2` [Compound I-542], for which the GI50 was above 3000 nM.

The compound `Cc1sc2c(c1C)C(c1ccc(OC3CC4(C3)CC3(CCN(c5ccc(C(=O)N[C@H]6C(C)(C)[C@H](Oc7ccc(C#N)c(Cl)c7)C6(C)C)nc5)CC3)C4)cc1)=N[C@@H](C)c1nnc(C)n1-2` [Compound I-549] showed a GI50 above 3000 nM.

In turn, `Cc1sc2c(c1C)C(c1ccc(N3CC(C4CCN(c5ccc(C(=O)N[C@H]6C(C)(C)[C@H](Oc7ccc(C#N)c(Cl)c7)C6(C)C)nc5)CC4)C3)cc1)=N[C@@H](Cc1ncco1)c1nnc(C)n1-2` [Compound I-564] returned a concentration for 50% growth inhibition (GI50) below 500 nM. In the case of `Cc1sc2c(c1C)C(c1ccc(CC3CC(C4CCCN(c5ncc(C(=O)N[C@H]6C(C)(C)[C@H](Oc7ccc(C#N)c(Cl)c7)C6(C)C)cn5)C4)C3)cc1)=N[C@@H](C)c1nnc(C)n1-2` (stereo partly drawn) [Compound I-488], the concentration for 50% growth inhibition (GI50) is below 500 nM. The same measure, in the same setting: the same measure for `Cc1sc2c(c1C)C(c1ccc(OC3CC4(C3)CC3(CCN(c5ccc(C(=O)N[C@H]6C(C)(C)[C@H](Oc7ccc(C#N)c(Cl)c7)C6(C)C)nc5)CC3)C4)cc1)=N[C@@H](Cc1ncco1)c1nnc(C)n1-2` [Compound I-546]: above 3000 nM. The same measure, in the same setting: the same measure for `Cc1sc2c(c1C)C(c1ccc(OC3CC4(C3)CC3(CCN(c5ccc(C(=O)N[C@H]6C(C)(C)[C@H](Oc7ccc(C#N)c(Cl)c7)C6(C)C)nc5)CC3)C4)cc1)=NC1(CC1)c1nnc(C)n1-2` [Compound I-530]: above 3000 nM; for `Cc1sc2c(c1C)C(c1ccc(OC3CC4(C3)CC3(CCN(c5ncc(C(=O)N(C)[C@H]6C(C)(C)[C@H](Oc7ccc(C#N)c(Cl)c7)C6(C)C)cn5)CC3)C4)cc1)=N[C@@H](Cc1ncco1)c1nnc(C)n1-2` [Compound I-592]: below 500 nM. On the same count and under the same terms, under `Cc1sc2c(c1C)C(c1ccc(CC3CC4(CCN(c5ccc(C(=O)N[C@H]6C(C)(C)[C@H](Oc7ccc(C#N)c(Cl)c7)C6(C)C)cn5)CC4)C3)cc1)=NC1(CC1)c1nnc(C)n1-2` [Compound I-507] stands below 500 nM.

For the compound `Cc1sc2c(c1C)C(c1ccc(N3CC(C4CCN(c5cnc(C(=O)N[C@H]6C(C)(C)[C@H](Oc7ccc(C#N)c(Cl)c7)C6(C)C)cn5)CC4)C3)cc1)=N[C@@H](C)c1nnc(C)n1-2` [Compound I-490], the GI50 was 500 to 1500 nM. Turning to `Cc1sc2c(c1C)C(c1ccc(N3CC(CC4CN(c5ccc(C(=O)N[C@H]6C(C)(C)[C@H](Oc7ccc(C#N)c(Cl)c7)C6(C)C)nc5)C4)C3)cc1)=N[C@@H](C)c1nnc(C)n1-2` [Compound I-515], the GI50 is below 500 nM. Still for that read-out and setting: the same measure for `Cc1sc2c(c1C)C(c1ccc(CC3CCN(c4ncc(C(=O)N[C@H]5C(C)(C)[C@H](Oc6ccc(C#N)c(Cl)c6)C5(C)C)cn4)CC3)cc1)=N[C@@H](Cc1ncco1)c1nnc(C)n1-2` [Compound I-554]: below 500 nM; for `Cc1sc2c(c1C)C(c1ccc(N3CC(CC4CN(c5cnc(C(=O)N[C@H]6C(C)(C)[C@H](Oc7ccc(C#N)c(Cl)c7)C6(C)C)cn5)C4)C3)cc1)=N[C@@H](Cc1ncco1)c1nnc(C)n1-2` [Compound I-563]: below 500 nM; for `Cc1sc2c(c1C)C(c1ccc(N3CC(C4CCN(c5ccc(C(=O)N[C@H]6C(C)(C)[C@H](Oc7ccc(C#N)c(Cl)c7)C6(C)C)cn5)CC4)C3)cc1)=N[C@@H](C)c1nnc(C)n1-2` [Compound I-551]: below 500 nM. Take `Cc1sc2c(c1C)C(c1ccc(OC[C@@H]3CCCN(c4cnc(C(=O)N[C@H]5C(C)(C)[C@H](Oc6ccc(C#N)c(Cl)c6)C5(C)C)cn4)C3)cc1)=N[C@@H](Cc1ncco1)c1nnc(C)n1-2` [Compound I-591]: the concentration for 50% growth inhibition (GI50) is below 500 nM. Regarding `Cc1sc2c(c1C)C(c1ccc(N3CC(CC4CN(c5cnc(C(=O)N[C@H]6C(C)(C)[C@H](Oc7ccc(C#N)c(Cl)c7)C6(C)C)cn5)C4)C3)cc1)=NC1(CC1)c1nnc(C)n1-2` [Compound I-527], the 50% growth inhibitory concentration (GI50) was above 3000 nM.

The record behind these values is patent US20260062422A1 (Halda Therapeutics OpCo, Inc., priority 2022, published 2026).
